In patent US20140322278A1, “Modulation of Tissue Transglutaminase Activation in Disease” (The Board of Trustees of the Leland Stanford Junior …, priority 2011, published 2014):
“Also recorded” adds a separate entry of the source.

What was measured:
[1] = Reactivity of disulfide inhibitors towards dithiothreitol
human thioredoxin = target: T1, human thioredoxin (Homo sapiens, UniProt P10599); experiment: Inhibition of human thioredoxin by disulfide analogs of PX-12 (kinh/Ki); type: biochemical; settings: for Trx kinh/Ki: human thioredoxin, bimolecular parameter estimating potency; for Trx/DTT: ratio of reactivity towards Trx relative to DTT (selectivity)
T1 construct: made in house; host or cells: E. coli
T1 sequence (P10599 1-105): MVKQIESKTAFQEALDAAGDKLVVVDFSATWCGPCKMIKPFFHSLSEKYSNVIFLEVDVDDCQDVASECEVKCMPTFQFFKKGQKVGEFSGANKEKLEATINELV

[2] = system: TG2 activation in T84 monolayers; experiment: Thioredoxin-induced TG2 activation in T84 monolayers, 5BP incorporation ELISA; type: cell-based, human; settings: thioredoxin 0-10 μM, 3 hrs, 25 μM ERW1041E
Experimental: (§1) FIG. 7. Dose dependence of TG2 activation in response to recombinant human thioredoxin treatments of T84 and WI-38 monolayers measured in a quantitative enzyme linked immunosorbent type assay. Cellular monolayers were treated for 3 hrs at 0-10 μM thioredoxin with or without TG2 inhibition using 25 μM ERW1041E or with or without using 0-50 μM thioredoxin inhibitor PX-12. TG2 activation was quantified by the amount of 5BP crosslinked to native proteins in the extracellular matrix of cultured monolayers as measured by tetramethylbenzidine turnover via streptavidin-HRP labeling. (A) and (B) Illustrate the dependence of 5BP incorporation on thioredoxin exposure concentration in T84 and WI-38 cells, respectively. […] (C) and (D) Illustrate the dependence of 5BP incorporation on the ability of thioredoxin to activate TG2. TG2 activation was highest for control experiments with 0 μM PX-12. The amount of PX-12 required to reduce the 5BP incorporation in half at saturating concentrations of 3 μM thioredoxin in T84 and WI-38 cultures was 11 μM and 5 μM PX-12, respectively. […] Data reported as mean+/−standard deviation.
(§2) To test whether recombinant human thioredoxin could directly activate TG2 in cell culture, we used T84 and WI-38 monolayers in similar assays as described herein. T84 and WI-38 cells were grown into mature monolayers at which point varying amounts of pre-reduced thioredoxin were added to the culture medium along with 5BP and/or small molecule inhibitors, such as the TG2 inhibitor, ERW1041E, or the thioredoxin inhibitor, PX-12. 5BP incorporated into the extracellular matrix of cultured monolayers via activated TG2 was then quantified.

[3] = target: T2, human transglutaminase 1 (TG1) (Homo sapiens, UniProt P22735); experiment: TG1 inhibition kinetics (kinh/Ki); type: biochemical
T2 sequence (P22735 1-817): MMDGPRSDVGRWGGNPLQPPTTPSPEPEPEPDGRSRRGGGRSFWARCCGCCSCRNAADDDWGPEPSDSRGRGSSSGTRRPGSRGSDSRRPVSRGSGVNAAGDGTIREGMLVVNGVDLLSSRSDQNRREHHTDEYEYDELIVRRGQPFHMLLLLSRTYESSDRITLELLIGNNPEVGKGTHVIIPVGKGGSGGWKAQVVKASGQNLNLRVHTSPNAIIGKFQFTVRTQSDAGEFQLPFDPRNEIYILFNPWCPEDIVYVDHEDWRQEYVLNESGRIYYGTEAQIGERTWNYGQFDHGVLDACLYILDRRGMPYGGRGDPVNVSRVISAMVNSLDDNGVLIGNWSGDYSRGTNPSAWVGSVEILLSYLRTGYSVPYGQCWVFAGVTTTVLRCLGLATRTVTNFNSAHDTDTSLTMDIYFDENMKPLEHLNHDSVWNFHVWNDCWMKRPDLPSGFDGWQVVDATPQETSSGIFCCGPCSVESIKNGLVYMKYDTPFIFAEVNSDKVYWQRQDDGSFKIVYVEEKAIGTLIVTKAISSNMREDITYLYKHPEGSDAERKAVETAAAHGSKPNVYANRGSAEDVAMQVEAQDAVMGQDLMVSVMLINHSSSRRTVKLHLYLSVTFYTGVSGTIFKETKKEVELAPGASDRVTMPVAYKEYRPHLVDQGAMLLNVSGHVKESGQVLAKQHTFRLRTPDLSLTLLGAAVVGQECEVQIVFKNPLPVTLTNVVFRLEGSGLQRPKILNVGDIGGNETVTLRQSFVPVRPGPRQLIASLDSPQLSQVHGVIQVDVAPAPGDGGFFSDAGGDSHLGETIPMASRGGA

human TG2 = target: T3, human TG2 (Homo sapiens, UniProt P21980); experiment: TG2 inhibition kinetics (kinh/Ki); type: biochemical
T3 sequence (P21980 1-687): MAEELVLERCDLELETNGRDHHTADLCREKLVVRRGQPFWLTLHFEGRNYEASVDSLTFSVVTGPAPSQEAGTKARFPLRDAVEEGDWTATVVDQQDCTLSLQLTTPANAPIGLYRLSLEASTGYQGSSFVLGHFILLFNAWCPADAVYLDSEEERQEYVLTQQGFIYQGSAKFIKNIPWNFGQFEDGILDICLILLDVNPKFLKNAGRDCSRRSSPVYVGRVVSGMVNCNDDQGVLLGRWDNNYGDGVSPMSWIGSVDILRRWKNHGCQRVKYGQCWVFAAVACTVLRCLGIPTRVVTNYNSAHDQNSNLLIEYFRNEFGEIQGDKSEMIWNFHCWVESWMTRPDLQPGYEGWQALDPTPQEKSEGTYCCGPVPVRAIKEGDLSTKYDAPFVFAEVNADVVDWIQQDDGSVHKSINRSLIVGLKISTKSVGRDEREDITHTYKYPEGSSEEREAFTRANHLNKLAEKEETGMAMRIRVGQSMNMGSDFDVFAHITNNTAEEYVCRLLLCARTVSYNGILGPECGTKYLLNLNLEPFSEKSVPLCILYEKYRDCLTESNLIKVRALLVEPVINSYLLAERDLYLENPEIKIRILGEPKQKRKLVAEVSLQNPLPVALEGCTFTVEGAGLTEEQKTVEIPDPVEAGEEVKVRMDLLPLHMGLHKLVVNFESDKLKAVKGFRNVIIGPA

[4] = system: TG2 activation in T84 monolayers; experiment: IFN-γ induced TG2 activation in T84 monolayers, 5BP incorporation ELISA; type: cell-based, human; settings: IFN-γ up to 1000 U/mL, 25 μM ERW1041E
Experimental: FIG. 2. Dose and time dependence of TG2 activation in response to IFN-γ treatments of T84 monolayers measured in a quantitative enzyme linked immunosorbent type assay. T84 monolayers were treated for 1 to 72 hrs at 0-1000 U/mL IFN-γ with or without TG2 inhibition using 25 μM ERW1041E. TG2 activation was quantified by the amount of 5BP crosslinked to native proteins in the T84 cells as measured by tetramethylbenzidine turnover via streptavidin-HRP labeling. 5BP incorporation is dependent on IFN-γ exposure concentration. […] Data reported as mean+/−standard deviation.
FIG. 3. […] (B) Dose and time dependence of TG2 activation in response to IFN-γ treatments of T84 monolayers measured in a quantitative enzyme linked immunosorbent type assay. […] TG2 activation was quantified by the amount of 5BP crosslinked to native proteins in the T84 cells as measured by tetramethylbenzidine turnover via streptavidin-HRP labeling. […]
In addition to increasing the paracellular permeability of antigenic gluten peptides, we sought to determine if IFN-γ could activate TG2 in the extracellular matrix of mature T84 monolayers. […] To quantify the extent to which IFN-γ activates TG2 in the T84 model system, an enzyme linked immunosorbent assay (ELISA) was developed, using streptavidin conjugated to horseradish peroxidase. […]

[5] = system: TG2 activation in WI-38 monolayers; experiment: Thioredoxin-induced TG2 activation in WI-38 monolayers, 5BP incorporation ELISA; type: cell-based, human; settings: thioredoxin 0-10 μM, 3 hrs, 25 μM ERW1041E
Experimental: as §1, §2

| SMILES | DTT k [1] | Trx kinh/Ki (human thioredoxin) | Trx/DTT (human thioredoxin) | kinh/Ki TG2 (human TG2) | other results |
| --- | --- | --- | --- | --- | --- |
| CC(C)SSc1nc2ccccc2[nH]1 [compound 8] | 76.7 M⁻¹ s⁻¹ | 5500 M⁻¹ s⁻¹ | 72 | – | – |
| CC(C)(C)SSc1nc2ccccc2[nH]1 [compound 6] | ~0.467 M⁻¹ s⁻¹ | – | – | – | – |
| CCSSc1nc2ccccc2[nH]1 [compound 4] | 900 M⁻¹ s⁻¹ | – | – | – | – |
| O=C(NC[C@@H]1CC(Br)=NO1)[C@@H]1CCCN1C(=O)OCc1cnc2ccccc2c1 [compound 2] | – | – | – | 283.15 M⁻¹ s⁻¹ | TG2 activation (5BP incorporation) in response to thioredoxin [2]: completely negates; also recorded: reduced to basal levels; kinh/Ki TG1 [3]: 220.37 M⁻¹ s⁻¹; TG2 activation (5BP incorporation) [4]: completely blocked 5BP incorporation; also recorded: reduced to basal levels; TG2 activation (5BP incorporation) in response to thioredoxin [5]: completely negates; also recorded: reduced to basal levels |
| CCC(C)SSc1nc2cc([N+](=O)[O-])ccc2[nH]1 (stereo not shown) [compound 9] | 40 M⁻¹ s⁻¹ | 14500 M⁻¹ s⁻¹ | 362 | – | – |
| CCC(C)SSc1nc2cccc(C)c2s1 (stereo not shown) [compound 17] | 10 M⁻¹ s⁻¹ | 817 M⁻¹ s⁻¹ | 82 | – | – |
| O=C(NC[C@@H]1CC(Br)=NO1)[C@@H]1C[C@H](F)CN1C(=O)OCc1cnc2ccccc2c1 [compound 19] | – | – | – | 223.93 M⁻¹ s⁻¹ | kinh/Ki TG1 [3]: 100.7 M⁻¹ s⁻¹ |
| CCC(C)SSc1nc2cc([N+](=O)[O-])ccc2s1 (stereo not shown) [compound 16] | 33.3 M⁻¹ s⁻¹ | 5830 M⁻¹ s⁻¹ | 175 | – | – |
| c1ccc2[nH]c(SSC3CCCCC3)nc2c1 [compound 7] | 76.7 M⁻¹ s⁻¹ | 6330 M⁻¹ s⁻¹ | 83 | – | – |
| C#CCO[C@@H]1C[C@@H](C(=O)NC[C@@H]2CC(Br)=NO2)N(C(=O)OCc2cnc3ccccc3c2)C1 [compound 23] | – | – | – | 142 M⁻¹ s⁻¹ | kinh/Ki TG1 [3]: 72.33 M⁻¹ s⁻¹ |
| CCC(C)SSc1ccccn1 (stereo not shown) [compound 13] | 0.617 M⁻¹ s⁻¹ | inactive | – | – | – |
| CCC(C)SSc1nc2ccncc2[nH]1 (stereo not shown) [compound 10] | 36.7 M⁻¹ s⁻¹ | 3170 M⁻¹ s⁻¹ | 85 | – | – |
| O=C(NC[C@@H]1CC(Br)=NO1)[C@@H]1CCCCN1C(=O)OCc1cnc2ccccc2c1 [compound 26] | – | – | – | 138.3 M⁻¹ s⁻¹ | kinh/Ki TG1 [3]: 384.87 M⁻¹ s⁻¹ |
| O=C(NC[C@@H]1CC(Br)=NO1)[C@@H]1Cc2ccccc2CN1C(=O)OCc1cnc2ccccc2c1 [compound 24] | – | – | – | 130 M⁻¹ s⁻¹ | – |
| CCC(C)SSc1nccs1 (stereo not shown) [compound 14] | 12.3 M⁻¹ s⁻¹ | 833 M⁻¹ s⁻¹ | 68 | – | – |
| CCC(C)SSc1nc2cc(Cl)ccc2s1 (stereo not shown) [compound 15] | 2.83 M⁻¹ s⁻¹ | 250 M⁻¹ s⁻¹ | 88 | – | – |
| O=C(NC[C@@H]1CC(Br)=NO1)[C@@H]1C[C@@H](O)CN1C(=O)OCc1cnc2ccccc2c1 [compound 20] | – | – | – | 208.52 M⁻¹ s⁻¹ | kinh/Ki TG1 [3]: 73.12 M⁻¹ s⁻¹ |
| O=C(NC[C@@H]1CC(Br)=NO1)[C@@H]1C[C@@H](F)CN1C(=O)OCc1cnc2ccccc2c1 [compound 18] | – | – | – | 120.8 M⁻¹ s⁻¹ | kinh/Ki TG1 [3]: 111.6 M⁻¹ s⁻¹ |
| c1ccc2[nH]c(SSC3CCCC3)nc2c1 [compound 5] | 53.3 M⁻¹ s⁻¹ | 4000 M⁻¹ s⁻¹ | 74 | – | – |
| O=C(NC[C@@H]1CC(Br)=NO1)[C@@H]1Cc2c([nH]c3ccccc23)CN1C(=O)OCc1cnc2ccccc2c1 [compound 25] | – | – | – | 346.67 M⁻¹ s⁻¹ | – |
| CCC(C)SSc1nc2ccccc2o1 (stereo not shown) [compound 12] | 102 M⁻¹ s⁻¹ | 40000 M⁻¹ s⁻¹ | 392 | – | – |
| CCC(C)SSc1nc2ccccc2[nH]1 (stereo not shown) [compound 3] | 80 M⁻¹ s⁻¹ | 3170 M⁻¹ s⁻¹ | 39 | – | – |
| O=C(NC[C@@H]1CC(Br)=NO1)[C@@H]1C[C@@H](OCc2ccccc2)CN1C(=O)OCc1cnc2ccccc2c1 [compound 22] | – | – | – | 128.5 M⁻¹ s⁻¹ | – |
